These results are taken from US7049331B2, “1,2,4-thiadiazole derivatives as melanocortin receptor modulators” (Ortho-McNeil Pharmaceutical, Inc., priority 2001, dated 2006).

Test [1] deals with T1, melanocortin MC-4 receptor (Homo sapiens, UniProt P32245).
T1 construct: purchased Receptor Biology Inc
Kind of test: Melanocortin MC-4 Receptor Binding Assay (SPA). Here is the method: Melanocortin MC-4 Receptor Binding Assay Melanocortin [MC-4]-membrane [purchased from Receptor Biology Inc] was coupled to wheat germ agglutinin coated polyvinyl toluene-Scintillation Proximity Assay beads [purchased from Amersham Pharmacia Inc.] for 30 min at 25° C. Into each well of a 96-well Opti plate [purchased from Packard, Calif.], 2.5 μg of membrane and 0.25 mg of beads were mixed in a volume of 100 μL media. […] Test compounds (1.5 μL) at 1 mM in 30% DMSO-50 mM HEPES, pH 7.4 buffer was added to separate wells on the plate. Radioactive ligand ^125I-NDP-melanocyte stimulating hormone [NEN, 2000Ci/mmol] was added to each well (48.5 μL per well, 40 pM final concentration). The plate was then sealed and let stand for 16 hr at 25° C. NDP-Melanocyte stimulating hormone peptide and α-melanocyte stimulating hormone peptide [purchased from Palomar Research Inc, 1 μM] were used as reference inhibitor compounds to define non-specific binding (N). Total binding (T) was defined using 30% DMSO-50 mM HEPES, pH 7.4 buffer. Bound radioactivity for each well (Y), measured at counts per minute (cpm) was measured in a TopCount [Packard, Calif.]. Percent inhibition was calculated as: […] The procedures described above for the melanocortin MC-4 receptor were repeated for the melanocortin MC-3 receptor. Following the procedures described, representative compounds of the present invention were tested for binding in the MC-4 and/or MC-3 assay, as listed in Table 4.

The subject of a further test is Cortical Cells. Kind of test: Neurite Cell Outgrowth Assay, cortical cells. The format is cell-based. The following applies: Rattus norvegicus; 50 nM; percent change over the vehicle response; NA = no change/not active. An excerpt:
(§1) Dissociated hippocampal and cortical cell cultures were established from embryonic day 18 rat fetuses as described by Mattson, M. P., Barger, S. W., Begley, J, and Mark, R. J., Methods Cell Biol., 1994, 46:[…]. Briefly, fetuses were removed via cesarean section from pregnant moms (Sprague-Dawley) and anesthetized with halothane according to the AVMA Panel on Euthanasia. Pups were decapitated and the brains were removed and placed in HEPES-buffered Hank's Balanced Salt solution (HBSS; Gibco). The hippocampi and cortices were dissected out and pooled according to tissue-type. Tissue was trypsinized for 15 min (1 mg/ml trypsin-HBSS; Worthington), rinsed with fresh HBSS, incubated in trypsin inhibitor (1 mg/ml; Sigma) for 5 min, rinsed again with fresh HBSS and then triturated in 1 ml fresh HBSS with a fire-polished glass pipette. Dissociated cells were seeded at 30,000 cells/well onto poly-D-lysine coated 96-well plates (Collaborative BioScience). Each well contained 100 μl of Eagle's Minimal Essential Media (MEM; Gibco) supplemented with 26 mM NaHCO3 (Sigma), 56 mM glucose (Sigma), 15 mM KCl (Sigma), 1 mM sodium pyruvate (Sigma), 1.1 mM L-glutamine (Sigma), 10% (v/v) heat-inactivated fetal bovine serum (Hyclone), and 0.001% gentamicin sulfate (Sigma) (pH 7.4). Cells were allowed to attach for 24 h in a humidified 37° C. 5% CO2 incubator before experimental treatment. The culture media was aspirated and exchanged with fresh media every 3 days.
(§2) Twenty-four hours after plating, cultures were treated with vehicle (PBS+0.1% BSA), alpha-melanocyte stimulating hormone (α-MSH) or test compound (diluted in DPBS). Each treatment condition was run in quadruplicate. On the third day in culture, the media was aspirated off and replaced with fresh media and test compound. At one week in culture, the cells were fixed with 10% phosphate-buffered formalin for 15 min, then rinsed with DPBS (Sigma) and placed in blocking serum for 30 min (horse serum; 1:50 dilution in DPBS; Vector Labs). The cultures were rinsed again with DPBS and then incubated in primary antibody for 2 hr (microtubule-associated protein-2 (MAP-2) is a selective marker for dendritic processes; anti-mouse monoclonal (Chemicon); 1:1000 dilution of MAP-2 in antibody diluent (Zymed)). Negative control wells were incubated in antibody diluent alone. Background signal was determined by blank wells (cell-free) incubated with or without antibody. Cultures were rinsed again with DPBS and then placed in fluorescein for 1 hr (FITC; anti-mouse IgG; rat adsorbed; 1:50 dilution in DPBS; Vector Labs). Cultures were rinsed a final time with DPBS and the plates were then read on a Cytofluor 4000 fluorescence plate reader. Neurite outgrowth was expressed as percent change from control (vehicle).
(§3) The data are expressed as percent change over the vehicle response. All compounds were screened at 50 nM. The abbreviation NA indicates no change/not active; the abbreviation ND indicates a compound not tested/response not determined.

The subject of another test is Hippocampal Cells. Kind of test: Neurite Cell Outgrowth Assay, hippocampal cells. The format is cell-based. The note with it: Rattus norvegicus; 50 nM; percent change over the vehicle response; NA = no change/not active.
Text: as §1, §2, §3

T1 sequence (P32245 whole entry): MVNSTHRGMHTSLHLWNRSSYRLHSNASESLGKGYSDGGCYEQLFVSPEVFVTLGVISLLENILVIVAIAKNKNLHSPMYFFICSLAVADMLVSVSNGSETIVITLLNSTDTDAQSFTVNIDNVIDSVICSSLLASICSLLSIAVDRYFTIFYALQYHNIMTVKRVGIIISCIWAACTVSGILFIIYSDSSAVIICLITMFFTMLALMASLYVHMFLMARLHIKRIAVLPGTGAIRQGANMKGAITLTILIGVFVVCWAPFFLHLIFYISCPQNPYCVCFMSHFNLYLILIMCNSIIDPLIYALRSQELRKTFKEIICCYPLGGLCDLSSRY

As to `c1ccc(Nc2nc(-c3ccccc3)[n+](-c3ccccc3)s2)cc1` [Compound 22], the IC50 in test [1] was found to be 124 nM. The activation at 0.05 µM with Cortical Cells is 30%.
On to `COc1ccc(Nc2nc(-c3ccccc3)[n+](-c3ccccc3)s2)cc1` [Compound 23], for which, in test [1], the IC50 was determined as 124 nM. The activation at 0.05 µM in the test on Hippocampal Cells worked out at 10%; in the test with Cortical Cells, 20%.
The corresponding values for `COc1ccccc1Nc1nc(-c2ccccc2)[n+](-c2ccccc2)s1` [Compound 24] are 76 nM, 10% and 16%.
Consider `Cc1ccc(Nc2nc(-c3ccccc3)[n+](-c3ccccc3)s2)cc1` [Compound 25], for which the IC50 in test [1] was determined as 57 nM. The molecule also gave an activation at 0.05 µM in the test with Cortical Cells of 23%.
`COc1ccccc1-[n+]1sc(Nc2ccccc2)nc1-c1ccccc1` [Compound 28]: the IC50 in test [1] came to 68 nM. Besides, in the test on Cortical Cells, the activation at 0.05 µM came out at 25%.
As to `COc1ccccc1Nc1nc(-c2ccccc2)[n+](-c2ccccc2OC)s1` [Compound 30], in test [1], the IC50 amounted to 103 nM.
In turn, `COc1ccccc1-[n+]1sc(Nc2ccc(Cl)cc2)nc1-c1ccccc1` [Compound 33] came in with an IC50 in test [1] of 91 nM. For the same molecule, the activation at 0.05 µM in the test with Cortical Cells amounted to 21%.
For `COc1ccc(-[n+]2sc(Nc3ccccc3)nc2-c2ccccc2)cc1` [Compound 35] the same measures were 100 nM and 28%.
For the molecule `COc1ccc(Nc2nc(-c3ccccc3)[n+](-c3ccc(OC)cc3)s2)cc1` [Compound 36], in test [1], the IC50 worked out at 79 nM. For the same molecule, the activation at 0.05 µM in the test on Cortical Cells came out at 16%.
The molecule `COc1ccc(-[n+]2sc(Nc3ccccc3OC)nc2-c2ccccc2)cc1` [Compound 37] registered an IC50 in test [1] of 72 nM. The same molecule returned an activation at 0.05 µM in the test with Cortical Cells of 26%.
`COc1ccc(-[n+]2sc(Nc3ccc(C)cc3)nc2-c2ccccc2)cc1` [Compound 38] showed an IC50 in test [1] of 159 nM.
In test [1], `COc1ccc(-[n+]2sc(Nc3ccccc3C)nc2-c2ccccc2)cc1` [Compound 39] displayed a concentration for half-maximal inhibition (IC50) of 146 nM.
As for `COc1ccc(-[n+]2sc(Nc3ccc(Cl)cc3)nc2-c2ccccc2)cc1` [Compound 40], in test [1], the IC50 amounted to 133 nM. This molecule yielded an activation at 0.05 µM with Hippocampal Cells of 26%.
For `COc1ccc(-[n+]2sc(Nc3ccccc3Cl)nc2-c2ccccc2)cc1` [Compound 41], the IC50 in test [1] was determined as 483 nM. Also, the results for the activation at 0.05 µM in the test on Hippocampal Cells and with Cortical Cells were 36% and 5%, respectively.
`Clc1ccccc1-[n+]1sc(Nc2ccccc2)nc1-c1ccccc1` [Compound 42] returned a half-inhibitory concentration (IC50) in test [1] of 482 nM. This molecule yielded an activation at 0.05 µM with Hippocampal Cells of 26%.
`COc1ccc(Nc2nc(-c3ccccc3)[n+](-c3ccccc3Cl)s2)cc1` [Compound 43] registered a 50% inhibitory concentration (IC50) in test [1] of 237 nM. Besides, the activation at 0.05 µM came out at 30% with Hippocampal Cells and 37% in the test with Cortical Cells.
Consider `COc1ccccc1Nc1nc(-c2ccccc2)[n+](-c2ccccc2Cl)s1` [Compound 44], for which the IC50 in test [1] was found to be 89 nM. In addition, the activation at 0.05 µM with Hippocampal Cells stood at 43%; with Cortical Cells it was 19%.
Regarding `Cc1ccc(Nc2nc(-c3ccccc3)[n+](-c3ccccc3Cl)s2)cc1` [Compound 45], the IC50 in test [1] is 246 nM. In addition, the activation at 0.05 µM with Hippocampal Cells stood at 46%; with Cortical Cells it was 25%.
`Cc1ccccc1Nc1nc(-c2ccccc2)[n+](-c2ccccc2Cl)s1` [Compound 46]: in test [1], the IC50 was 368 nM. For the same molecule, the results for the activation at 0.05 µM in the test with Hippocampal Cells and in the test on Cortical Cells were 40% and 19%, respectively.
In test [1], `Clc1ccc(Nc2nc(-c3ccccc3)[n+](-c3ccccc3Cl)s2)cc1` [Compound 47] registered an IC50 of 874 nM. Also, the activation at 0.05 µM was found to be 20% in the test on Hippocampal Cells and 13% in the test on Cortical Cells.
Turning to `Clc1ccccc1Nc1nc(-c2ccccc2)[n+](-c2ccccc2Cl)s1` [Compound 48], the IC50 in test [1] came out at 444 nM. In the test on Cortical Cells, this molecule gave an activation at 0.05 µM of 19%.
As to `COc1ccc(CNc2nc(-c3ccccc3)[n+](-c3ccccc3)s2)cc1` [Compound 51], in test [1], the IC50 came out at 1000 nM. Also, the figures for the activation at 0.05 µM in the test with Hippocampal Cells and in the test on Cortical Cells were 74% and 28%, respectively.
For `COc1ccccc1CNc1nc(-c2ccccc2)[n+](-c2ccccc2)s1` [Compound 52], the IC50 in test [1] was found to be 1000 nM. The molecule further returned an activation at 0.05 µM in the test with Hippocampal Cells of 65%.
In turn, `Cc1ccc(CNc2nc(-c3ccccc3)[n+](-c3ccccc3)s2)cc1` [Compound 53] displayed a half-maximal inhibitory concentration (IC50) in test [1] of 1000 nM. In addition, in the test with Hippocampal Cells, the activation at 0.05 µM amounted to 67%.
In test [1], `Cc1ccccc1CNc1nc(-c2ccccc2)[n+](-c2ccccc2)s1` [Compound 54] came in with an IC50 of 800 nM. The activation at 0.05 µM in the test on Hippocampal Cells was 45%.
For `Clc1ccc(CNc2nc(-c3ccccc3)[n+](-c3ccccc3)s2)cc1` [Compound 55] the same measures were 800 nM and 19%.
Consider `Clc1ccccc1CNc1nc(-c2ccccc2)[n+](-c2ccccc2)s1` [Compound 56], for which, in test [1], the 50% inhibitory concentration (IC50) worked out at 3000 nM. For the same molecule, the activation at 0.05 µM in the test on Hippocampal Cells was found to be 33%.
Take `COc1ccc(-c2nc(Nc3ccccc3)s[n+]2-c2ccc(OC)cc2)cc1` [Compound 57]: the “IC50 MC-4 (nM) (SPA)” value in test [1] was “inactive”. Besides, the activation at 0.05 µM in the test on Hippocampal Cells worked out at 9%.
For `COc1ccc(Nc2nc(-c3ccc(OC)cc3)[n+](-c3ccc(OC)cc3)s2)cc1` [Compound 58], the “IC50 MC-4 (nM) (SPA)” value in test [1] was “inactive”. Further, the activation at 0.05 µM in the test on Hippocampal Cells was 72%; in the test with Cortical Cells it was 10%.
As to `COc1ccc(-c2nc(Nc3ccccc3OC)s[n+]2-c2ccc(OC)cc2)cc1` [Compound 59], the “IC50 MC-4 (nM) (SPA)” value in test [1] was “inactive”. Moreover, the activation at 0.05 µM with Hippocampal Cells is 61%; in the test on Cortical Cells, 21%.
Molecule `COc1ccccc1-[n+]1sc(Nc2ccccc2)nc1-c1ccc(C)cc1` [Compound 65] came in with an IC50 in test [1] of 114 nM.
Still for that read-out and setting: then `COc1ccc(Nc2nc(-c3ccc(C)cc3)[n+](-c3ccccc3OC)s2)cc1` [Compound 66], with 120 nM.
Regarding `COc1ccccc1-[n+]1sc(Nc2ccc(C)cc2)nc1-c1ccc(C)cc1` [Compound 68], in test [1], the IC50 was 110 nM.
On to `COc1ccccc1-[n+]1sc(Nc2ccccc2C)nc1-c1ccc(C)cc1` [Compound 69], for which, in test [1], the 50% inhibitory concentration (IC50) came out at 139 nM.
`COc1ccccc1-[n+]1sc(Nc2ccccc2Cl)nc1-c1ccc(C)cc1` [Compound 71] returned an IC50 in test [1] of 234 nM.
`COc1ccccc1-[n+]1sc(Nc2cccnc2)nc1-c1ccc(C)cc1` [Compound 72] registered an IC50 in test [1] of 155 nM. Against the preceding molecule, the IC50 is about 1.5-fold lower.
Turning to `COc1ccccc1-[n+]1sc(Nc2cccnc2)nc1-c1ccccc1` [Compound 73], the half-inhibitory concentration (IC50) in test [1] was 725 nM.
Same read-out and setting: next, `COc1ccc(Nc2nc(-c3ccccc3OC)[n+](-c3ccccc3OC)s2)cc1` [Compound 75]: 103 nM.
The molecule `COc1ccccc1-c1nc(Nc2ccc(C)cc2)s[n+]1-c1ccccc1OC` [Compound 77] had an IC50 in test [1] of 4.4 nM.
In test [1], `COc1ccccc1-c1nc(Nc2ccccc2C)s[n+]1-c1ccccc1OC` [Compound 78] gave an IC50 of 99 nM. This IC50 lies about 22-fold higher than the previous one.
`COc1ccccc1-c1nc(Nc2ccc(Cl)cc2)s[n+]1-c1ccccc1OC` [Compound 79] came in with a half-inhibitory concentration (IC50) in test [1] of 216 nM.
`COc1ccccc1-c1nc(Nc2cccnc2)s[n+]1-c1ccccc1OC` [Compound 81] came in with an IC50 in test [1] of 672 nM.
